{"source": "patent US20160120877A1", "about": "“PHARMACEUTICAL COMPOSITIONS FOR SUSTAINED DELIVERY OF BENZODIAZEPINE ANTAGONISTS” (priority 2010, published 2016)", "key": {"[1]": {"test": "Dialysis diffusion: effect of sample size", "type": "physicochemical", "description": "(§1) Dialysis tubing cellulose membrane was cut into approximately 8 cm lengths, washed with hot water for 3 hours. Tubing was then treated with 0.3% (w/v) solution of sodium sulfide at 80° C. for 1 minute, washed with hot water (60° C.) for 2 minutes and followed by acidification with 0.2% sulfuric acid. Tubing was then rinsed with hot water to remove the acid. Test formulations were added, the tubing closed with nylon closures and placed in the dialysate. At various time periods, the dialysate was sampled and the flumazenil released measured by HPLC assay.\nExperiments were conducted to test the influence of sample size on diffusion rate.\n(§2) As described in 1.1 with 600 ml of phosphate buffer pH 4.0 as dialysate.\nA=0.125 g of a 3% flumazenil solution in NMP\nB=0.250 g of a 3% flumazenil solution in NMP\nC=0.500 g of a 3% flumazenil solution in NMP"}, "[2]": {"test": "Dialysis diffusion: effect of concentration and sample size (same quantity of flumazenil)", "type": "physicochemical", "description": "as §1\nExperiments were conducted to test the effect of different concentrations and different sample sizes (but same quantity of flumazenil) on diffusion rate.\nas §2\nA=0.25 g of a 1.5% flumazenil solution in NMP\nB=0.125 g of a 3% flumazenil solution in NMP\nC=0.083 g of a 4.5% flumazenil solution in NMP"}}}
{"smiles": "CCOC(=O)c1ncn2c1CN(C)C(=O)c1cc(F)ccc1-2", "note": "[flumazenil, ethyl 8-fluoro-5,6-dihydro-5-methyl-6-oxo-4H-imidazo[1,5-a](1,4)benzodiazepine-3-carboxylate]", "values": [{"measurement": "% flumazenil released", "setting": "[1]; sample A1 (0.125 g of 3% solution in NMP), 1 h", "result": 85.8, "unit": "%"}, {"measurement": "% flumazenil released", "setting": "[1]; sample A1 (0.125 g of 3% solution in NMP), 2 h", "result": 94.9, "unit": "%"}, {"measurement": "% flumazenil released", "setting": "[1]; sample A1 (0.125 g of 3% solution in NMP), 4 h", "result": 100.1, "unit": "%"}, {"measurement": "% flumazenil released", "setting": "[1]; sample A1 (0.125 g of 3% solution in NMP), 6 h", "result": 101.8, "unit": "%"}, {"measurement": "% flumazenil released", "setting": "[1]; sample A1 (0.125 g of 3% solution in NMP), 24 h", "result": 101.6, "unit": "%"}, {"measurement": "% flumazenil released", "setting": "[1]; sample A2 (0.125 g of 3% solution in NMP), 1 h", "result": 77.9, "unit": "%"}, {"measurement": "% flumazenil released", "setting": "[1]; sample A2 (0.125 g of 3% solution in NMP), 2 h", "result": 90.8, "unit": "%"}, {"measurement": "% flumazenil released", "setting": "[1]; sample A2 (0.125 g of 3% solution in NMP), 4 h", "result": 99.1, "unit": "%"}, {"measurement": "% flumazenil released", "setting": "[1]; sample A2 (0.125 g of 3% solution in NMP), 6 h", "result": 101.3, "unit": "%"}, {"measurement": "% flumazenil released", "setting": "[1]; sample A2 (0.125 g of 3% solution in NMP), 24 h", "result": 102.0, "unit": "%"}, {"measurement": "% flumazenil released", "setting": "[1]; sample B1 (0.250 g of 3% solution in NMP), 1 h", "result": 50.9, "unit": "%"}, {"measurement": "% flumazenil released", "setting": "[1]; sample B1 (0.250 g of 3% solution in NMP), 2 h", "result": 64.7, "unit": "%"}, {"measurement": "% flumazenil released", "setting": "[1]; sample B1 (0.250 g of 3% solution in NMP), 4 h", "result": 87.0, "unit": "%"}, {"measurement": "% flumazenil released", "setting": "[1]; sample B1 (0.250 g of 3% solution in NMP), 6 h", "result": 96.3, "unit": "%"}, {"measurement": "% flumazenil released", "setting": "[1]; sample B1 (0.250 g of 3% solution in NMP), 24 h", "result": 101.3, "unit": "%"}, {"measurement": "% flumazenil released", "setting": "[1]; sample B2 (0.250 g of 3% solution in NMP), 1 h", "result": 50.9, "unit": "%"}, {"measurement": "% flumazenil released", "setting": "[1]; sample B2 (0.250 g of 3% solution in NMP), 2 h", "result": 65.2, "unit": "%"}, {"measurement": "% flumazenil released", "setting": "[1]; sample B2 (0.250 g of 3% solution in NMP), 4 h", "result": 87.6, "unit": "%"}, {"measurement": "% flumazenil released", "setting": "[1]; sample B2 (0.250 g of 3% solution in NMP), 6 h", "result": 97.8, "unit": "%"}, {"measurement": "% flumazenil released", "setting": "[1]; sample B2 (0.250 g of 3% solution in NMP), 24 h", "result": 101.3, "unit": "%"}, {"measurement": "% flumazenil released", "setting": "[1]; sample C1 (0.500 g of 3% solution in NMP), 1 h", "result": 36.6, "unit": "%"}, {"measurement": "% flumazenil released", "setting": "[1]; sample C1 (0.500 g of 3% solution in NMP), 2 h", "result": 45.5, "unit": "%"}, {"measurement": "% flumazenil released", "setting": "[1]; sample C1 (0.500 g of 3% solution in NMP), 4 h", "result": 59.3, "unit": "%"}, {"measurement": "% flumazenil released", "setting": "[1]; sample C1 (0.500 g of 3% solution in NMP), 6 h", "result": 70.4, "unit": "%"}, {"measurement": "% flumazenil released", "setting": "[1]; sample C1 (0.500 g of 3% solution in NMP), 24 h", "result": 100.8, "unit": "%"}, {"measurement": "% flumazenil released", "setting": "[1]; sample C2 (0.500 g of 3% solution in NMP), 1 h", "result": 46.5, "unit": "%"}, {"measurement": "% flumazenil released", "setting": "[1]; sample C2 (0.500 g of 3% solution in NMP), 2 h", "result": 56.0, "unit": "%"}, {"measurement": "% flumazenil released", "setting": "[1]; sample C2 (0.500 g of 3% solution in NMP), 4 h", "result": 71.1, "unit": "%"}, {"measurement": "% flumazenil released", "setting": "[1]; sample C2 (0.500 g of 3% solution in NMP), 6 h", "result": 83.1, "unit": "%"}, {"measurement": "% flumazenil released", "setting": "[1]; sample C2 (0.500 g of 3% solution in NMP), 24 h", "result": 101.0, "unit": "%"}, {"measurement": "% flumazenil released", "setting": "[2]; sample A1 (0.25 g of 1.5% solution in NMP), 1 h", "result": 91.0, "unit": "%"}, {"measurement": "% flumazenil released", "setting": "[2]; sample A1 (0.25 g of 1.5% solution in NMP), 2 h", "result": 100.3, "unit": "%"}, {"measurement": "% flumazenil released", "setting": "[2]; sample A1 (0.25 g of 1.5% solution in NMP), 3 h", "result": 101.0, "unit": "%"}, {"measurement": "% flumazenil released", "setting": "[2]; sample A1 (0.25 g of 1.5% solution in NMP), 4 h", "result": 100.9, "unit": "%"}, {"measurement": "% flumazenil released", "setting": "[2]; sample A1 (0.25 g of 1.5% solution in NMP), 5 h", "result": 101.0, "unit": "%"}, {"measurement": "% flumazenil released", "setting": "[2]; sample A1 (0.25 g of 1.5% solution in NMP), 6 h", "result": 100.8, "unit": "%"}, {"measurement": "% flumazenil released", "setting": "[2]; sample A2 (0.25 g of 1.5% solution in NMP), 1 h", "result": 93.2, "unit": "%"}, {"measurement": "% flumazenil released", "setting": "[2]; sample A2 (0.25 g of 1.5% solution in NMP), 2 h", "result": 100.7, "unit": "%"}, {"measurement": "% flumazenil released", "setting": "[2]; sample A2 (0.25 g of 1.5% solution in NMP), 3 h", "result": 100.9, "unit": "%"}, {"measurement": "% flumazenil released", "setting": "[2]; sample A2 (0.25 g of 1.5% solution in NMP), 4 h", "result": 101.0, "unit": "%"}, {"measurement": "% flumazenil released", "setting": "[2]; sample A2 (0.25 g of 1.5% solution in NMP), 5 h", "result": 100.6, "unit": "%"}, {"measurement": "% flumazenil released", "setting": "[2]; sample A2 (0.25 g of 1.5% solution in NMP), 6 h", "result": 100.7, "unit": "%"}, {"measurement": "precipitation in bags during the dialysis", "setting": "[2]; sample A (0.25 g of 1.5% solution in NMP)", "result": "no precipitation observed"}, {"measurement": "% flumazenil released", "setting": "[2]; sample B1 (0.125 g of 3% solution in NMP), 1 h", "result": 92.3, "unit": "%"}, {"measurement": "% flumazenil released", "setting": "[2]; sample B1 (0.125 g of 3% solution in NMP), 2 h", "result": 99.0, "unit": "%"}, {"measurement": "% flumazenil released", "setting": "[2]; sample B1 (0.125 g of 3% solution in NMP), 3 h", "result": 100.4, "unit": "%"}, {"measurement": "% flumazenil released", "setting": "[2]; sample B1 (0.125 g of 3% solution in NMP), 4 h", "result": 101.1, "unit": "%"}, {"measurement": "% flumazenil released", "setting": "[2]; sample B1 (0.125 g of 3% solution in NMP), 5 h", "result": 100.9, "unit": "%"}, {"measurement": "% flumazenil released", "setting": "[2]; sample B1 (0.125 g of 3% solution in NMP), 6 h", "result": 101.1, "unit": "%"}, {"measurement": "% flumazenil released", "setting": "[2]; sample B2 (0.125 g of 3% solution in NMP), 1 h", "result": 80.6, "unit": "%"}, {"measurement": "% flumazenil released", "setting": "[2]; sample B2 (0.125 g of 3% solution in NMP), 2 h", "result": 92.4, "unit": "%"}, {"measurement": "% flumazenil released", "setting": "[2]; sample B2 (0.125 g of 3% solution in NMP), 3 h", "result": 97.3, "unit": "%"}, {"measurement": "% flumazenil released", "setting": "[2]; sample B2 (0.125 g of 3% solution in NMP), 4 h", "result": 99.3, "unit": "%"}, {"measurement": "% flumazenil released", "setting": "[2]; sample B2 (0.125 g of 3% solution in NMP), 5 h", "result": 100.3, "unit": "%"}]}
